Data from ChEMBL document CHEMBL4346715, “Antibacterial activity study of 1,2,4-triazole derivatives” (Eur J Med Chem, 2019).

Tests used:
Aspergillus brasiliensis = assay: Antifungal activity against Aspergillus brasiliensis ATCC 16404 after 24 hrs by microdilution method; format: functional; settings: ATCC 16404, 24 h
Bacillus cereus = assay: Antibacterial activity against Bacillus cereus ATCC 10876 after 24 hrs by microdilution method; format: functional; settings: ATCC 10876, 24 h
Staphylococcus aureus [1] = assay: Antibacterial activity against Staphylococcus aureus ATCC 25923 after 24 hrs by microdilution method; format: functional; settings: ATCC 25923, 24 h
Pseudomonas aeruginosa [2] = assay: Antibacterial activity against Pseudomonas aeruginosa ATCC 27853 after 24 hrs by microdilution method; format: functional; settings: ATCC 27853, 24 h
Proteus mirabilis = assay: Antibacterial activity against Proteus mirabilis ATCC 35659 after 24 hrs by microdilution method; format: functional; settings: ATCC 35659, 24 h
Enterococcus faecalis = assay: Antibacterial activity against Enterococcus faecalis ATCC 29212 after 24 hrs by microdilution method; format: functional; settings: ATCC 29212, 24 h
Candida albicans = assay: Antifungal activity against Candida albicans ATCC 50193 after 24 hrs by microdilution method; format: functional; settings: ATCC 50193, 24 h
Escherichia coli [3] = assay: Antibacterial activity against Escherichia coli ATCC 25922 after 24 hrs by microdilution method; format: functional; settings: ATCC 25922, 24 h
Pseudomonas aeruginosa [4] = assay: Antibacterial activity against Pseudomonas aeruginosa ATCC 27853 after 24 hrs by broth microdilution method; format: functional; settings: ATCC 27853, 24 h
Staphylococcus aureus [5] = assay: Antibacterial activity against Staphylococcus aureus ATCC 49444 after 24 hrs by broth microdilution method; format: functional; settings: ATCC 49444, 24 h
Salmonella typhimurium = assay: Antibacterial activity against Salmonella typhimurium ATCC 14028 after 24 hrs by broth microdilution method; format: functional, Salmonella enterica subsp. enterica serovar Typhimurium; settings: Salmonella enterica, ATCC 14028, 24 h
Listeria monocytogenes = assay: Antibacterial activity against Listeria monocytogenes ATCC 35152 after 24 hrs by broth microdilution method; format: functional; settings: ATCC 35152, 24 h
Escherichia coli [6] = assay: Antibacterial activity against Escherichia coli after 24 hrs by broth microdilution method; format: functional
Escherichia coli [7] = assay: Antibacterial activity against Escherichia coli; format: functional
Staphylococcus aureus [8] = assay: Antibacterial activity against Staphylococcus aureus; format: functional
Bacillus anthracis = assay: Antibacterial activity against Bacillus anthracis incubated for 18 hrs post 30 mins pre-diffusion by disk diffusion method; format: functional
Staphylococcus aureus [9] = assay: Antibacterial activity against methicillin-resistant Staphylococcus aureus incubated for 18 hrs post 30 mins pre-diffusion by disk diffusion method; format: functional
Pseudomonas aeruginosa [10] = assay: Antibacterial activity against Pseudomonas aeruginosa; format: functional
Bacillus subtilis [11] = assay: Antibacterial activity against Bacillus subtilis; format: functional
Clostridium tetani = assay: Antibacterial activity against Clostridium tetani; format: functional
Streptococcus pneumoniae = assay: Antibacterial activity against Streptococcus pneumoniae; format: functional
Escherichia coli [12] = assay: Antibacterial activity against Escherichia coli incubated for 18 hrs post 30 mins pre-diffusion by disk diffusion method; format: functional
Listeria innocua = assay: Antibacterial activity against Listeria innocua incubated for 18 hrs post 30 mins pre-diffusion by disk diffusion method; format: functional
Micrococcus luteus = assay: Antibacterial activity against Micrococcus luteus incubated for 18 hrs post 30 mins pre-diffusion by disk diffusion method; format: functional
Bacillus subtilis [13] = assay: Antibacterial activity against Bacillus subtilis incubated for 18 hrs post 30 mins pre-diffusion by disk diffusion method; format: functional
Staphylococcus aureus [14] = assay: Antibacterial activity against Staphylococcus aureus incubated for 18 hrs post 30 mins pre-diffusion by disk diffusion method; format: functional

Measured: MIC

CCCCCCCCCCn1nnc(-c2n[nH]c(=S)n2N)c1-c1n[nH]c(=S)n1N
1 to 128 µg/mL: Aspergillus brasiliensis | Bacillus cereus | Staphylococcus aureus [1] | Pseudomonas aeruginosa [2] | Proteus mirabilis | Enterococcus faecalis | Candida albicans | Escherichia coli [3]

Cc1nc(-c2ccccc2)sc1-c1nnc(S)n1/N=C/c1ccc(Br)cc1
1.95 to 62.5 µg/mL: Pseudomonas aeruginosa [4] | Staphylococcus aureus [5] | Salmonella typhimurium | Listeria monocytogenes | Escherichia coli [6]

CC1(C)S[C@@H]2[C@H](NC(=O)[C@H](N)c3ccccc3)C(=O)N2[C@H]1C(=O)O [AMPICILLIN]
100 to 250 µg/mL: Escherichia coli [7] | Bacillus subtilis [11] | Clostridium tetani | Streptococcus pneumoniae
10.2 µg/mL: Pseudomonas aeruginosa [10]
10.9 µg/mL: Staphylococcus aureus [8]
31 to 1000 µg/mL: Bacillus anthracis | Staphylococcus aureus [9]

Cc1nc(-c2ccccc2)sc1-c1nnc(S)n1/N=C/c1cccc(Cl)c1
1.95 to 62.5 µg/mL: Pseudomonas aeruginosa [4] | Staphylococcus aureus [5] | Salmonella typhimurium | Listeria monocytogenes | Escherichia coli [6]

CCCCCCCCCCCCCCCCn1nnc(-c2n[nH]c(=S)n2N)c1-c1n[nH]c(=S)n1N
1 to 128 µg/mL: Aspergillus brasiliensis | Bacillus cereus | Staphylococcus aureus [1] | Pseudomonas aeruginosa [2] | Proteus mirabilis | Enterococcus faecalis | Candida albicans | Escherichia coli [3]

COC(=O)c1ncn(CN(CCCO)Cn2cnc(C(=O)OC)n2)n1
7 to 15 µg/mL: Escherichia coli [12] | Listeria innocua | Micrococcus luteus | Bacillus subtilis [13]

O=C(O)c1cn(C2CC2)c2cc(N3CCNCC3)c(F)cc2c1=O [CIPROFLOXACIN]
1 to 8 µg/mL: Aspergillus brasiliensis | Bacillus cereus | Staphylococcus aureus [1] | Pseudomonas aeruginosa [2] | Proteus mirabilis | Enterococcus faecalis | Candida albicans | Escherichia coli [3]
3.9 µg/mL: Pseudomonas aeruginosa [4] | Listeria monocytogenes

FC(F)(F)c1cc(-c2nnc(Sc3cc(Cl)nc(Sc4ccccc4)n3)[nH]2)cc(C(F)(F)F)c1
0.75 to 1.8 µg/mL: Bacillus anthracis | Staphylococcus aureus [9]
1.8 µg/mL: Escherichia coli [12]
3.1 µg/mL: Staphylococcus aureus [14]

Cc1nc(-c2ccccc2)sc1-c1nnc(S)n1/N=C/c1cccc([N+](=O)[O-])c1
1.95 to 62.5 µg/mL: Pseudomonas aeruginosa [4] | Staphylococcus aureus [5] | Salmonella typhimurium | Listeria monocytogenes | Escherichia coli [6]
